Test results from patent US20210128554A1, “ANTI-FLAVIVIRIDAE ACTIVITY OF ANTI-RETROVIRAL NON-NUCLEOSIDE (NNRTIS) AND NUCLEOSIDE REVERSE TRANSCRIPTASE INHIBITORS (NNRTIS)” (priority 2016, published 2021).

Test system: Zika virus
Assay: ZIKV copy numbers released by primary human fetal astrocytes treated with NNRTIs (Real-time Q-RT-PCR)
Type: cell-based
Settings: ZIKV 0.1 MOI, 5, 10, and 25 μM at 24, 48, 72 hrs, culture media at 96 hrs
Experimental: FIG. 6 is a graph showing that Zika virus replication is suppressed by antiretroviral HIV-1 non-nucleoside reverse transcriptase inhibitors (NNRTIs) in primary astrocytes: Primary human fetal astrocytes were plated in 6 well tissue culture dishes and infected with ZIKV at 0.1 MOI. At 24, 48, and 72 hrs post-infections, cells were treated with increasing concentrations of anti-retroviral non-nucleoside reverse transcriptase inhibitors Rilpivirine, Efavirenz, and Etravirine at 5, 10, and 25 μM concentrations. Culture media of the infected cells were collected at 96 hrs post-infections and subjected to Real-time Q-RT-PCR for the detection and quantification of ZIKV copy numbers released by infected cells.

Row | Compound | Zika virus replication (ZIKV copy numbers released by infected cells)
1 | O=C1Nc2ccc(Cl)cc2[C@@](C#CC2CC2)(C(F)(F)F)O1 [Efavirenz] | suppressed
2 | Cc1cc(C#N)cc(C)c1Oc1nc(Nc2ccc(C#N)cc2)nc(N)c1Br [Etravirine] | suppressed
